Tests used:
[1] = molecular target: MEK7 (Homo sapiens (Human), UniProt O14733); test: KINOMEscan competition binding assay (Kd); conditions: read-out: Kd Values Against MEK Kinases Isoforms: MEK7
Description: (§1) KINOMEscan™ is based on a competition binding assay that quantitatively measures the ability of a test compound of the invention to compete with an immobilized, active-site directed ligand. The Kinase assay is performed by combining three components: DNA-tagged kinase; immobilized ligand; and a test compound. The ability of the test compound to compete with the immobilized ligand is measured via quantitative PCR of the DNA tag.
(§2) For most assays, kinase-tagged T7 phage strains were prepared in an E. coli host derived from the BL21 strain. E. coli were grown to log-phase and infected with T7 phage and incubated with shaking at 32° C. until lysis. The lysates were centrifuged and filtered to remove cell debris. The remaining kinases were produced in HEK-293 cells and subsequently tagged with DNA for qPCR detection. Streptavidin-coated magnetic beads were treated with biotinylated small molecule ligands for 30 minutes at room temperature to generate affinity resins for kinase assays. The liganded beads were blocked with excess biotin and washed with blocking buffer (SeaBlock (Pierce), 1% BSA, 0.05% Tween 20, 1 mM DTT) to remove unbound ligand and to reduce nonspecific binding. […] All reactions were performed in polystyrene 96-well plates in a final volume of 0.135 ml. […] The kinase concentration in the eluates was measured by qPCR.

[2] = molecular target: MEK6 (Homo sapiens (Human), UniProt P52564); test: KINOMEscan competition binding assay (Kd); conditions: read-out: Kd Values Against MEK Kinases Isoforms: MEK6
Description: as §1, §2

[3] = molecular target: BRAF (Homo sapiens (Human), UniProt P15056); test: KINOMEscan competition binding assay (Kd); conditions: read-out: Kd Values Against MAPK Pathway Kinases: BRAF
Description: as §1, §2

[4] = molecular target: ERK2 (Homo sapiens (Human), UniProt P28482); test: KINOMEscan competition binding assay (Kd); conditions: read-out: Kd Values Against MAPK Pathway Kinases: ERK2
Description: as §1, §2

[5] = molecular target: BRAF (V600E) (Homo sapiens (Human), UniProt P15056, V600E); test: KINOMEscan competition binding assay (Kd); conditions: read-out: Kd Values Against MAPK Pathway Kinases: BRAF (V600E)
Description: as §1, §2

[6] = molecular target: MEK3 (Homo sapiens (Human), UniProt P46734); test: KINOMEscan competition binding assay (Kd); conditions: read-out: Kd Values Against MEK Kinases Isoforms: MEK3
Description: as §1, §2

[7] = molecular target: ERK1 (Homo sapiens (Human), UniProt P27361); test: KINOMEscan competition binding assay (Kd); conditions: read-out: Kd Values Against MAPK Pathway Kinases: ERK1
Description: as §1, §2

[8] = molecular target: AurA (Homo sapiens (Human), UniProt O14965); test: Radioisotope filter binding assay; type: biochemical; conditions: read-out: IC50 Activity Levels Against RTKs (c-Kit, RET, HER4) and AurA, CHK2 Kinases: AurA
Summary of the method: (§3)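 First, substrate and cofactors are prepared in base buffer (20 mM Hepes pH 7.5, 10 mM MgCl2, 1 mM EGTA). Next, kinase and then compound are added, followed by 20 min at room temperature. Finally, [γ-33P]ATP starts a 2 h reaction, detected by filter binding.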

[9] = molecular target: FGR (Homo sapiens (Human), UniProt P09769); test: Rabbit reticulocyte lysate assay (KinaseSeeker competition binding); conditions: read-out: IC50 Activity Levels Against SRC Family Kinases: FGR
Description: (§4) 1. Rabbit Reticulocyte Lysate Assay Design:
(§5) KinaseSeeker is a homogeneous competition binding assay where the displacement of an active site dependent probe by an inhibitor is measured by a change in luminescence signal. Luminescence readout translates into a highly sensitive and robust assay with low background and minimal interference from test compounds.
(§6) 10 mM stock solutions of test compounds were serially diluted in DMSO to make assay stocks. Prior to initiating IC50 determinations, the test compounds were evaluated for false positive against split-luciferase.
(§7) Each test compound was screened in duplicate against target kinase at 7 different concentrations. For kinase assays, Cfluc-kinase was translated along with Fos-Nfluc using a cell-free system (rabbit reticulocyte lysate) at 30° C. for 90 min. 24 uL aliquot of this lysate containing either 1 uL of DMSO (for no-inhibitor control) or compound solution in DMSO was incubated for 30 minutes at room temperature followed by 1 hour in presence of a kinase specific probe. 80 uL of luciferin assay reagent was added to each solution and luminescence was immediately measured on a luminometer.
(§8) The % Inhibition and % Activity Remaining was calculated using the following equation: % Inhibition=[(ALUControl−ALUSample)/ALUControl]×100 % Activity Remaining=100−% Inhibition
(§9) The % Activity was plotted against compound concentration and the IC50 was determined for each compound using a 7-point curve (Jester, B. W.; et. al. J. Am. Chem. Soc. 2010, 132, 11727-11735. Jester, B. W., et. al. J. Med. Chem. 2012, 55, 1526-1537). Biological activity of representative compounds of the disclosure are described in Table 5.

[10] = molecular target: YES1 (Homo sapiens (Human), UniProt P07947); test: as above; conditions: read-out: IC50 Activity Levels Against SRC Family Kinases: YES1
Description: as §4, §5, §6, §7, §8, §9

[11] = molecular target: FRK (Homo sapiens (Human), UniProt P42685); test: Radioisotope filter binding assay; type: biochemical; conditions: read-out: IC50 Activity Levels Against FRK Family Kinases: FRK
Summary of the method: as §3

[12] = molecular target: CSK (Homo sapiens (Human), UniProt P41240); test: Radioisotope filter binding assay; type: biochemical; conditions: read-out: IC50 Activity Levels Against SRC Family Kinases: CSK
Summary of the method: as §3

[13] = molecular target: ITK (Homo sapiens (Human), UniProt Q08881); test: Radioisotope filter binding assay; type: biochemical; conditions: read-out: IC50 Activity Levels Against Representative TEC Family Kinases: ITK
Summary of the method: as §3

Sequence of YES1 (P07947 whole entry): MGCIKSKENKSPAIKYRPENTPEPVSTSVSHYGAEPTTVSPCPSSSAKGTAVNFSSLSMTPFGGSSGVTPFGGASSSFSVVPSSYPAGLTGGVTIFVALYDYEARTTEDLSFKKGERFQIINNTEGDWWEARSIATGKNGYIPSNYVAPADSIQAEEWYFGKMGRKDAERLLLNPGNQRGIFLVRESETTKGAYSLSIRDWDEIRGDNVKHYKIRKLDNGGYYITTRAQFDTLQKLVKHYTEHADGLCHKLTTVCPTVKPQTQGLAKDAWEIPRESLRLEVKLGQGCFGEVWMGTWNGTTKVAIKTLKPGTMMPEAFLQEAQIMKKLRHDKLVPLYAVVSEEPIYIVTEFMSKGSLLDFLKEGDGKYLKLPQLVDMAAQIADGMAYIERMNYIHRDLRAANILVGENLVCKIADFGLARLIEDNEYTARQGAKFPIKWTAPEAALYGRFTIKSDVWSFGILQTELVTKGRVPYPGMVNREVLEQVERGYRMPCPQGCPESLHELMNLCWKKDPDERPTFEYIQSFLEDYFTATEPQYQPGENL
Sequence of MEK7 (O14733 whole entry, canonical isoform): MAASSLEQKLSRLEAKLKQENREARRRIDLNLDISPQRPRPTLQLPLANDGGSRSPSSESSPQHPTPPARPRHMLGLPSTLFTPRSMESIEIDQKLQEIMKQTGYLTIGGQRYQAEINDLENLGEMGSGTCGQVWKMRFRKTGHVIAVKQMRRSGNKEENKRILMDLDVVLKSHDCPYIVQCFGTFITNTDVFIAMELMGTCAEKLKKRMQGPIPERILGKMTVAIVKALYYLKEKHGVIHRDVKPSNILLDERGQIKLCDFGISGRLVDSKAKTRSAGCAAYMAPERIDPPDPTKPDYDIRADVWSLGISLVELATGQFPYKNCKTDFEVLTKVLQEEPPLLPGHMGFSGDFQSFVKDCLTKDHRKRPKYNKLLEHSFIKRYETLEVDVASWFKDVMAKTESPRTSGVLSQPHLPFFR
Sequence of FGR (P09769 whole entry): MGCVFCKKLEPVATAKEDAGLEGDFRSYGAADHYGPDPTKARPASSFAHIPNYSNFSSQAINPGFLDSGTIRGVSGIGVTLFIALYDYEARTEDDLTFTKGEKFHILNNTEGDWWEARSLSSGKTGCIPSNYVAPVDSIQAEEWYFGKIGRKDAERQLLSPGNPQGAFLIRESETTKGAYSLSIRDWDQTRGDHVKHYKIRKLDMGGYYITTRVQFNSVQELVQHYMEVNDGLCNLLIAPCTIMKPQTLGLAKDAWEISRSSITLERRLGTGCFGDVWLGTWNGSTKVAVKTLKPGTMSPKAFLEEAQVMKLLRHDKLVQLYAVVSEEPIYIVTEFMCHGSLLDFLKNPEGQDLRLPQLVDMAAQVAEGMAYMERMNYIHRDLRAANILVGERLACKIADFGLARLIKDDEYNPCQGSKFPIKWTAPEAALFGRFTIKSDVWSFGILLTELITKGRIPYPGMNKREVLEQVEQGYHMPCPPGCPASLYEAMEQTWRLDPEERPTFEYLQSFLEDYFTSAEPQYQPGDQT
Sequence of BRAF (P15056 whole entry): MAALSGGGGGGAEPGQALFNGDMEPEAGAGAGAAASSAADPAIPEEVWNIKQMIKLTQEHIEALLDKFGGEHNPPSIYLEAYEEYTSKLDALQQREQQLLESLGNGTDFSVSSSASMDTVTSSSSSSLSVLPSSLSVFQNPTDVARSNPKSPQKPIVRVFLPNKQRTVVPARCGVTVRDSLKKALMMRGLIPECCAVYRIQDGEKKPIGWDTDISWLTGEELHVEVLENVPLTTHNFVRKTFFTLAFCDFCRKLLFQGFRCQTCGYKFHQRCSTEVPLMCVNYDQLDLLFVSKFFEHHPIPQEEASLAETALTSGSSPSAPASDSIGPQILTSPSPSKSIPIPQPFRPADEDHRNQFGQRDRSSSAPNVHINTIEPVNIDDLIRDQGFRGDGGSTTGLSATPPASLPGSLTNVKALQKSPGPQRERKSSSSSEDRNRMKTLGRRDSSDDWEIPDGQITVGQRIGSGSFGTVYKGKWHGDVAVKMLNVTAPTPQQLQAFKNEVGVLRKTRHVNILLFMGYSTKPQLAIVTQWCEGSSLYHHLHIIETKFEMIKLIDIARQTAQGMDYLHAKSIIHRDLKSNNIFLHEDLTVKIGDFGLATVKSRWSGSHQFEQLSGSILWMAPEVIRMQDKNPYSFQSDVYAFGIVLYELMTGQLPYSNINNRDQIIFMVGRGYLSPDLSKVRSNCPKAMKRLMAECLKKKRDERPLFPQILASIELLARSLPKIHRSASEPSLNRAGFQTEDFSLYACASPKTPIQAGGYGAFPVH
Sequence of MEK6 (P52564 whole entry, canonical isoform): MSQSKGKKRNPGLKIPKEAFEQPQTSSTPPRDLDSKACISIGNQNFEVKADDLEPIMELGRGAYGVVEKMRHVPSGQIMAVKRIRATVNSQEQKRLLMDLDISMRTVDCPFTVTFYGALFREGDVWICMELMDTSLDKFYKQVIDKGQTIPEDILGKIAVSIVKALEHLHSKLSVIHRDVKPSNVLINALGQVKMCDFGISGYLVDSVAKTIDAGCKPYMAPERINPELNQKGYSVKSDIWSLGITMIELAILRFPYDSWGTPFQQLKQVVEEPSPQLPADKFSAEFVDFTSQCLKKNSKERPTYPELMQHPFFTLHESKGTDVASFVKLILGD
Sequence of ITK (Q08881 whole entry): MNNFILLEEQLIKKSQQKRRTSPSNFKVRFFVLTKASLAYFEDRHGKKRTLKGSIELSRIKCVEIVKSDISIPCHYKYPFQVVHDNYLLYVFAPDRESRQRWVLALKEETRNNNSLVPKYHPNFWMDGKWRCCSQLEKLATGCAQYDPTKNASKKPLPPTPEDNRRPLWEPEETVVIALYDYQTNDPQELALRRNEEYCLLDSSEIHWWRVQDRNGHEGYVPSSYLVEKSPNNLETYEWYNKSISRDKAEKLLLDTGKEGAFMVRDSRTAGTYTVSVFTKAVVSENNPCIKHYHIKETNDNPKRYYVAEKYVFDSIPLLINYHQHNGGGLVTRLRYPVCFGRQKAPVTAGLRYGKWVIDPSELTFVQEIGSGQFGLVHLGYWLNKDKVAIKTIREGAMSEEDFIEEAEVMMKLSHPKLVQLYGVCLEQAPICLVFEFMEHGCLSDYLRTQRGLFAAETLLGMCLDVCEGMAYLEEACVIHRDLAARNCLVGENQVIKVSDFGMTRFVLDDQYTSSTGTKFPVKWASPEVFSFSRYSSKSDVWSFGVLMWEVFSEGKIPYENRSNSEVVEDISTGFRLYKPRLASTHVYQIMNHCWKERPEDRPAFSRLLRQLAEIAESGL
Sequence of ERK2 (P28482 whole entry): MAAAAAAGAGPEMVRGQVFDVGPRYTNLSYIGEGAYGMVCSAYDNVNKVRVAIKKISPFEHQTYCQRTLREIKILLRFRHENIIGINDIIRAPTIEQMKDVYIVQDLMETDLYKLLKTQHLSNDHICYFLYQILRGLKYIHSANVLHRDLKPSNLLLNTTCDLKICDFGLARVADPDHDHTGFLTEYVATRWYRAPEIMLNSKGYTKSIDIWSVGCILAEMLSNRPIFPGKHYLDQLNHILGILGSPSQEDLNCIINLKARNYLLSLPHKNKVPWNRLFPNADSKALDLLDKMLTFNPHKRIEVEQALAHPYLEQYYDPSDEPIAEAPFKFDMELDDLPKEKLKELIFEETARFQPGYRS
Sequence of ERK1 (P27361 whole entry): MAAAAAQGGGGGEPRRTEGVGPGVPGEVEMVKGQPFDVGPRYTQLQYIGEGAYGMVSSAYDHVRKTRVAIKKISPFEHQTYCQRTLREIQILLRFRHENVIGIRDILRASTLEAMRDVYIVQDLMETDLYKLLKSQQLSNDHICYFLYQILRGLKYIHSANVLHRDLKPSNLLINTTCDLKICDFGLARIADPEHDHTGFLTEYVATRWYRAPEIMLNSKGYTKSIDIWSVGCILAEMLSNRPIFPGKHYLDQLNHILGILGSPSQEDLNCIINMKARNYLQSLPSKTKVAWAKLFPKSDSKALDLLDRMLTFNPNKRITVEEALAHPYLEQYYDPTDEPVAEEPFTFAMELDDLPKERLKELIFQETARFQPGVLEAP
Sequence of FRK (P42685 whole entry): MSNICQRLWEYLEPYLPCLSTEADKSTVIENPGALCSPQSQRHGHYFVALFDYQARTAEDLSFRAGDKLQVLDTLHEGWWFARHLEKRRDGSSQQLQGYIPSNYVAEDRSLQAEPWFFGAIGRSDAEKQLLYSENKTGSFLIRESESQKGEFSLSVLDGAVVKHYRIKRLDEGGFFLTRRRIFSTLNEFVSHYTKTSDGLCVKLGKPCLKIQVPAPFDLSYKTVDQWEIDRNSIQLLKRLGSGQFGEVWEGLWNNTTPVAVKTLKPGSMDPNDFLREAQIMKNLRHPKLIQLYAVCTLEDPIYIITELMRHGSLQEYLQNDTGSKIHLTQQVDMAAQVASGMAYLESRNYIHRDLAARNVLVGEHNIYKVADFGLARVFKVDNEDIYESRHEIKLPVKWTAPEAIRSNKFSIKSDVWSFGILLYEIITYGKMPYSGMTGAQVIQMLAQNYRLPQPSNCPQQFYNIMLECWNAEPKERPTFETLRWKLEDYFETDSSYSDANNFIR
Sequence of BRAF (V600E) (P15056 whole entry V600E): as the sequence (P15056 whole entry) above, with V600E counted along it
Sequence of AurA (O14965 whole entry): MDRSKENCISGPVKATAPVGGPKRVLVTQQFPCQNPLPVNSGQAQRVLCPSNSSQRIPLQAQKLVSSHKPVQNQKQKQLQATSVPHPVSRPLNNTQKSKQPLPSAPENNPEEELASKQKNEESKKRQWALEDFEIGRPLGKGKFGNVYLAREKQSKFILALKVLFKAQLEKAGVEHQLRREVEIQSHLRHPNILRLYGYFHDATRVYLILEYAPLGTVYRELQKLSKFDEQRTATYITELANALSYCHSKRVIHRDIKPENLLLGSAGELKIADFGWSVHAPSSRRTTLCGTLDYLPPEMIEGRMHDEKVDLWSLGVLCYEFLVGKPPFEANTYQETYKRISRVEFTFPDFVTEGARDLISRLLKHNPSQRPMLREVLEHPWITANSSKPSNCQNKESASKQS

Row | Kd [1] [nM] | Kd [2] [nM] | Kd [3] [nM] | Kd [4] [nM] | Kd [5] [nM] | Kd [6] [nM] | Kd [7] [nM] | IC50 [8] [nM] | IC50 [9] [nM] | IC50 [10] [nM] | IC50 [11] [nM] | IC50 [12] [nM] | IC50 [13] [nM] | Compound
1 | 1000 to 10000 | 1000 to 10000 | 1000 to 10000 |  |  |  |  |  |  |  |  |  |  | Nc1ncnc2c1c(-c1ccc(Oc3ccccc3)cc1)nn2C[C@@H]1SSC[C@@H]1O [46 A.]
2 | 1000 to 10000 | 1000 to 10000 | 1000 to 10000 | 1000 to 10000 | 1000 to 10000 | 1000 to 10000 | 1000 to 10000 | 100 to 999 | 100 to 999 | 5 to 99 |  |  |  | Nc1ncnc2c1c(-c1ccc(Oc3ccccc3)cc1)nn2C[C@H]1SSC[C@H]1O [46 B.]
3 |  |  |  |  |  |  |  |  | 100 to 999 | 100 to 999 | 5 to 99 | 5 to 99 | 1000 to 10000 | Nc1ncnc2c1c(-c1ccc(Oc3ccccc3)cc1)nn2C[C@H]1SSC[C@@H]1O [43 B.]

Source: patent publication US10844038B2, “1,2-dithiolane compounds useful in neuroprotection, autoimmune and cancer diseases and conditions” (SABILA BIOSCIENCES LLC, priority 2016, dated 2020)
